{"source": "paper PMC7217877", "about": "“N-AS-triggered SPMs are direct regulators of microglia in a model of Alzheimer’s disease” (Nature Communications, 2020)", "key": {"APP/PS1 mice [1]": {"system": "APP/PS1 mice", "assay": "fear conditioning (Supplementary Fig 7e)", "format": "in vivo, mouse", "conditions": "N-AS vs vehicle APP/PS1", "protocol": "Transgenic mouse lines over-expressing the hAPP695swe (APP) and presenilin-1M146V (PS1) mutations were originated from GlaxoSmithKline (Harlow, UK)[32] and maintained as described previously. We purchased 5×FAD mice from Jackson Labs (Stock number. 34840-JAX). Because APP/PS1 and 5xFAD mice show sex differences in disease progression, we used only male mice. To examine possible therapeutic effect of N-AS and aspirin in APP/PS1 mice, the N-AS (30 mg kg^−1, Sigma-Aldrich, 01912) was injected daily s.c. for 8 weeks to 7-months-old APP/PS1 mice until the age of 9 months, and aspirin (2 mg kg^−1, Sigma-Aldrich, A5376)[33] was administrated orally to 7-months-old APP/PS1 mice for 8 weeks. […] Block randomization method was used to allocate the animals to experimental groups. To eliminate the bias, we were blinded in experimental progress such as data collection and data analysis. Mice were housed at temperature of 22 °C and a 12 h day/12 h night cycle with free access to tap water and food pellets. All protocols were approved by the Kyungpook National University Institutional Animal Care and Use Committee. […] Freezing was analyzed for 5 min. […] Overall activity in the box was measured, and the amount of time and distance traveled in the center arena was noted. […] The total number of transitions, latency to first enter the light chamber, distance traveled, and time spent in each chamber were recorded."}, "APP/PS1 mice [2]": {"system": "APP/PS1 mice", "assay": "morphometric analysis of Aβ plaques by size (Supplementary Fig 5d)", "format": "in vivo, mouse", "protocol": "Thioflavin S (Sigma-Aldrich) staining was carried out according to previously described procedures. We used 6E10 (mouse, 1:100, Signet, SIG39300), anti-20G10 (mouse, 1:1000, provided by D. R. Howlett, GlaxoSmithKline, Harlow, Essex, UK) for Aβ42, anti-G30 (rabbit, 1:1000, provided by D. R. Howlett) for Aβ40, SMA (mouse, 1:400, Sigma-Aldrich, A2547), AT8 (mouse, 1:500, Thermo Fisher Scientific, MN1020), Caspase-3 (mouse, 1:200, Novus Biologicals, NB100-56708), ac-S565 (rabbit, 1:100), COX2 (mouse, 1:250, Thermo Fisher Scientific, 35-8200), Iba1 (rabbit, 1:500, Wako, 019-19941 and goat, Abcam, ab5076), NeuN (mouse, 1:500, Millipore, MAB177), GFAP (rabbit, 1:500, Dako, N1506 and chicken, 1:500, Abcam, ab4674), and Lamp1 (mouse, 1:200, Abcam, ab24170). The sections were analyzed with a laser-scanning confocal microscope (FV3000; Olympus) or with a BX51 microscope (Olympus). MetaMorph software (Molecular Devices) was used to quantification. Three-dimensional reconstruction of microglia was recorded and analyzed using IMARIS software (Bitplane)[11]. For the analysis of age-dependent microglial COX2^+ CX3CR1^+ cells in WT and APP/PS1 mice, COX2 (rabbit, 1:100, Abcam, ab15191) and CX3CR1 (mouse, 1:100, BioLegend, 149008) antibody were used and the images were acquired on Alexa 488 and APC Channel with performed using Operetta CLS and Analysis Software 4.5 (Perkin-Elmer).\nTransgenic mouse lines over-expressing the hAPP695swe (APP) and presenilin-1M146V (PS1) mutations were originated from GlaxoSmithKline (Harlow, UK)[32] and maintained as described previously. We purchased 5×FAD mice from Jackson Labs (Stock number. 34840-JAX). Because APP/PS1 and 5xFAD mice show sex differences in disease progression, we used only male mice. To examine possible therapeutic effect of N-AS and aspirin in APP/PS1 mice, the N-AS (30 mg kg^−1, Sigma-Aldrich, 01912) was injected daily s.c. for 8 weeks to 7-months-old APP/PS1 mice until the age of 9 months, and aspirin (2 mg kg^−1, Sigma-Aldrich, A5376)[33] was administrated orally to 7-months-old APP/PS1 mice for 8 weeks. Also, to confirm possible therapeutic efficacy of N-AS in 5×FAD, the N-AS (30 mg kg^−1, Sigma-Aldrich, 01912) was injected daily s.c. for 4 weeks to 3-months-old 5×FAD mice until the age of 4 months. Block randomization method was used to allocate the animals to experimental groups. To eliminate the bias, we were blinded in experimental progress such as data collection and data analysis. Mice were housed at temperature of 22 °C and a 12 h day/12 h night cycle with free access to tap water and food pellets. All protocols were approved by the Kyungpook National University Institutional Animal Care and Use Committee."}, "[3]": {"conditions": "APP/PS1 + N-AS, individual values, sFig 5d, in % (unit assumed)"}}, "note": "Several values for one entry are separate records, joined by “and”; a condition that tells them apart may be missing. Equal entries are not always repeated.", "data": [{"smiles": "CCCCCCCCCCCCC/C=C/[C@@H](O)[C@H](CO)NC(C)=O", "note": "[N-AS, N-((2S,3R,E)-1,3-Dihydroxyoctadec-4-en-2-yl)acetamide]", "values": [{"measurement": "memory formation, fear conditioning", "setting": "APP/PS1 mice [1]", "value": "largely protected from this defect"}, {"measurement": "Aβ plaques by size, 25-50mM", "setting": "APP/PS1 mice [2]; [3]", "value": "2.008 and 5.136 and 3.485 and 2.167 and 5.808 and 4.496 and 5.407 and 0.9834 and 1.041"}, {"measurement": "Aβ plaques by size, <25mM", "setting": "APP/PS1 mice [2]; [3]", "value": "96.4567 and 90.0482 and 94.697 and 95.0162 and 89.7245 and 91.9498 and 90.3491 and 98.0585 and 97.8053"}, {"measurement": "Aβ plaques by size, >50mM", "setting": "APP/PS1 mice [2]; [3]", "value": "1.535 and 4.815 and 1.818 and 2.8169 and 4.468 and 3.555 and 4.244 and 0.9581 and 1.154"}, {"measurement": "medium (25–50 μm) and large-sized (>50 μm) plaques", "setting": "APP/PS1 mice [2]; N-AS vs vehicle APP/PS1", "value": "significant reduction of medium (25–50 μm) and large-sized (>50 μm) plaques"}, {"measurement": "number of small (<25 μm) plaques", "setting": "APP/PS1 mice [2]; N-AS vs vehicle APP/PS1", "value": "significantly increased number of small (<25 μm) plaques"}]}]}
